Assay results published in PubChem BioAssay (NCI).
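Assay format: 96-well plates, 48-hour exposure. Here, GI50 denotes the concentration required for 50% inhibition of growth. TGI marks complete inhibition of growth.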

Experiments:
Assay in all cases: NCI-60 cell line screen, 48 h; in the data active = GI50 below about 0.43 µM; inactive = the rest
[1] = test system: 786-0 renal
[2] = test system: A498 renal
[3] = test system: ACHN renal
[4] = test system: BT-549 breast
[5] = test system: CAKI-1 renal
[6] = test system: CCRF-CEM leukemia
[7] = test system: COLO 205 colon
[8] = test system: DU-145 prostate
[9] = test system: EKVX NSCLC
[10] = test system: HCC-2998 colon
[11] = test system: HCT-116 colon
[12] = test system: HCT-15 colon
[13] = test system: HL-60(TB) leukemia
[14] = test system: HOP-62 NSCLC
[15] = test system: HS 578T breast
[16] = test system: HT29 colon
[17] = test system: K-562 leukemia
[18] = test system: KM12 colon
[19] = test system: M14 melanoma
[20] = test system: MALME-3M melanoma
[21] = test system: MCF7 breast
[22] = test system: MDA-MB-231 breast
[23] = test system: MDA-MB-435
[24] = test system: MOLT-4 leukemia
[25] = test system: NCI-H226 lung
[26] = test system: NCI-H23 lung
[27] = test system: NCI-H460 lung
[28] = test system: NCI/ADR-RES ovarian
[29] = test system: OVCAR-3 ovarian
[30] = test system: OVCAR-4 ovarian
[31] = test system: OVCAR-5 ovarian
[32] = test system: OVCAR-8 ovarian
[33] = test system: PC-3 prostate
[34] = test system: RPMI-8226 leukemia
[35] = test system: RXF 393 renal
[36] = test system: SF-268 CNS
[37] = test system: SF-295 CNS
[38] = test system: SF-539 CNS
[39] = test system: SK-MEL-2 melanoma
[40] = test system: SK-MEL-28 melanoma
[41] = test system: SK-MEL-5 melanoma
[42] = test system: SK-OV-3 ovarian
[43] = test system: SN12C renal
[44] = test system: SNB-19 CNS
[45] = test system: SNB-75 CNS
[46] = test system: SW-620 colon
[47] = test system: T-47D breast
[48] = test system: TK-10 renal
[49] = test system: U251 CNS
[50] = test system: UACC-257 melanoma
[51] = test system: UACC-62 melanoma
[52] = test system: UO-31 renal

CCn1cc(C(=O)O)c(=O)c2cc(F)c(N3CCN(S(=O)(=O)c4ccc(Cl)cc4)CC3)cc21
inactive: GI50 [1] 3.77 µM | GI50 [2] 1.81 µM | GI50 [3] 3.09 µM | GI50 [4] 2.44 µM | GI50 [5] 2.75 µM | GI50 [6] 2.93 µM | GI50 [7] 2.62 µM | GI50 [8] 4.11 µM | GI50 [9] 2.25 µM | GI50 [10] 4.1 µM | GI50 [11] 3.18 µM | GI50 [12] 3.62 µM | GI50 [13] 2.18 µM | GI50 [14] 4.47 µM | GI50 [15] 4.52 µM | GI50 [16] 2.64 µM | GI50 [17] 2.91 µM | GI50 [18] 4.07 µM | GI50 [19] 2.85 µM | GI50 [20] 1.99 µM | GI50 [21] 2.98 µM | GI50 [22] 2.51 µM | GI50 [23] 2.47 µM | GI50 [24] 3.83 µM | GI50 [25] 3.02 µM | GI50 [26] 2.67 µM | GI50 [27] 3.16 µM | GI50 [28] 2.98 µM | GI50 [29] 3.51 µM | GI50 [30] 2.2 µM | GI50 [31] 4.25 µM | GI50 [32] 2.8 µM | GI50 [33] 2.31 µM | GI50 [34] 3.08 µM | GI50 [35] 3.32 µM | GI50 [36] 3.85 µM | GI50 [37] 3.78 µM | GI50 [38] 4.12 µM | GI50 [39] 2.57 µM | GI50 [40] 4.88 µM | GI50 [41] 1.8 µM | GI50 [42] 3.28 µM | GI50 [43] 2.92 µM | GI50 [44] 3.97 µM | GI50 [45] 2.6 µM | GI50 [46] 3.43 µM | GI50 [47] 3.2 µM | GI50 [48] 3.73 µM | GI50 [49] 3.1 µM | GI50 [50] 2.16 µM | GI50 [51] 2.02 µM | GI50 [52] 2.07 µM
5.84 µM: TGI [7]
7.15 µM: TGI [26]
5.5 µM: TGI [50]
9.81 µM: TGI [45]
7.66 µM: TGI [52]
8.22 µM: TGI [33]
> 100 µM: TGI [1] | TGI [6] | TGI [8] | TGI [10] | TGI [11] | TGI [12] | TGI [14] | TGI [15] | TGI [17] | TGI [18] | TGI [19] | TGI [21] | TGI [22] | TGI [24] | TGI [25] | TGI [27] | TGI [29] | TGI [31] | TGI [32] | TGI [34] | TGI [35] | TGI [36] | TGI [38] | TGI [40] | TGI [43] | TGI [44] | TGI [46] | TGI [48] | TGI [49]
5.67 µM: TGI [39]
3.51 µM: TGI [41]
9.87 µM: TGI [3]
7.57 µM: TGI [30]
6.21 µM: TGI [16]
4.81 µM: TGI [13]
9.23 µM: TGI [42]
9.89 µM: TGI [9]
8.99 µM: TGI [28]
5.25 µM: TGI [20]
7.47 µM: TGI [2]
14.3 µM: TGI [47]
7.44 µM: TGI [51]
7.06 µM: TGI [5]
7.55 µM: TGI [23]
11.8 µM: TGI [37]
7.27 µM: TGI [4]
